Source: US9045415B2, “Targeting of EWS-FLI1 as anti-tumor therapy” (Georgetown University, priority 2006, dated 2015)
Read-outs that look alike come from different tables or passages of the source. Blank lines part the entries; values can stand above or below the molecule they belong to. No end group written: not given here. *: point of attachment. FITC = O=C1OC2(c3ccc(O)cc3Oc3cc(O)ccc32)c2ccc(NC(=S)*)cc21

Tests used:
[1] = molecular target: T1, recombinant EWS-FLI1 (Homo sapiens, UniProt Q01543+Q01844); test: Surface plasmon resonance (Biacore) binding to EWS-FLI1; conditions: read-out: KD
T1 sequence (Q01543 1-452): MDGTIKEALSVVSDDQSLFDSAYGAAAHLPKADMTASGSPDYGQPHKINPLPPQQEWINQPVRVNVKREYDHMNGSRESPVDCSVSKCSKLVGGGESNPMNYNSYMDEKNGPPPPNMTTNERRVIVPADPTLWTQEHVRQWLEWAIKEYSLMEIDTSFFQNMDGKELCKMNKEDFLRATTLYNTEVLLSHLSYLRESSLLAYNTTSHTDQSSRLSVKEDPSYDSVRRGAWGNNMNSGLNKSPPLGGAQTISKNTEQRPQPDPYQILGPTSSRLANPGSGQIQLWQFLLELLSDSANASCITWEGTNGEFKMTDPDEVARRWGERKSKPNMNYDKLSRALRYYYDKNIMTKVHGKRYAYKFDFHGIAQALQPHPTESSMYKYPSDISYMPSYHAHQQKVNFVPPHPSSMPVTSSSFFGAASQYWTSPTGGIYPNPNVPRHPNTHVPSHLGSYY
T1 sequence (Q01844 1-656): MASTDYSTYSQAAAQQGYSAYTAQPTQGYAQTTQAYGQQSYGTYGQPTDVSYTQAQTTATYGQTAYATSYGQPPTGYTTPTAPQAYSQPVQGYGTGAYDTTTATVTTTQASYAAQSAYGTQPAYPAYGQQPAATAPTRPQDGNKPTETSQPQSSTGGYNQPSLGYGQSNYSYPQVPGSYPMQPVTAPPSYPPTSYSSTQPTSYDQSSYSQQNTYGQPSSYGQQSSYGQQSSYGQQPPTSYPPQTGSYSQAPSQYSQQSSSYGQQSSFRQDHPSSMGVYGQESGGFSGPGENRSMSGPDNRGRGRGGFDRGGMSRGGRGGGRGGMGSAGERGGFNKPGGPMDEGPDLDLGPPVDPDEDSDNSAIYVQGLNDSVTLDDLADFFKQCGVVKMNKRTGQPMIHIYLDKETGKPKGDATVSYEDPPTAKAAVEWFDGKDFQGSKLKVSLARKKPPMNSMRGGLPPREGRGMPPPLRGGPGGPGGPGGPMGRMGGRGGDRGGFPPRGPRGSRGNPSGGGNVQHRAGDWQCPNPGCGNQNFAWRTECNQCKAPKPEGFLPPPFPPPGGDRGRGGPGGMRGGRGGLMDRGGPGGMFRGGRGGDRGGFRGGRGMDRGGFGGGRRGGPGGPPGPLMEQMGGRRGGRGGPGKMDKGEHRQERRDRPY
Method: Antp is conjugated to the amino terminal of all peptides used in these studies. Recombinant EWS-FLI1 (MW 55 kDa) was covalently linked to a CM5 chip at a density of 1200 RU, and E9RP (MW 4 kDa) was evaluated for binding. The E9RP analyte concentrations ranged from 0.03-30 μM, and all are shown in duplicate. E9RP bound to EWS-FLI1 with a KD of 4.0 μM.
An assay that will identify whether a peptide can disrupt RHA from interacting with EWS-FLI1 was developed. The Biacore device is a biosensor that utilizes surface plasmon resonance (SPR) to measure the strength of molecular interactions. SPR is the sensitive measurement of […] light based upon alterations of surface characteristics that change with molecules binding to a surface. The Biacore device combines SPR with a microfluidic system.
The KD of E9RP binding to EWS-FLI1 was calculated to be 4.0 μM (FIG. 4).
A surface plasmon resonance assay using the Biacore T100 was established with EWS-FLI1, prepared in our laboratory as previously published (Uren, A., Tcherkasskaya, O. & Toretsky, J. A. Recombinant EWS-FLI1 oncoprotein activates transcription. Biochemistry 43, 13579-13589 (2004)). DNA oligonucleotides were used to quality control the proper conformation of EWS-FLI1 on the surface of a CM5 chip. Small molecules obtained from the Developmental Therapeutics Program of the National Cancer Institute, NIH (http://dtp.nci.nih.gov/branches/dscb/repo_open.html) were prioritized based upon their molecular weight and solubility. An initial screening of molecules was performed at 1 or 10 μM compound, based on solubility. We used a model that compares the actual binding maximum (actual RU) with the theoretical binding maximum (RUtheor). […] Hits (RUactual to RUtheor of 0.7-2.0) were then reviewed by a team of medicinal chemists and those with structural potentials were selected for further study. Selected molecules were tested in vitro in a solution coimmunoprecipitation assay using recombinant EWS-FLI1 and GST-RHA (647-1075).

[2] = system: ESFT cells TC71; test: Xenografts of TC71 cells transfected with E9R expression plasmids; type: in vivo, mice; conditions: mutated control peptide vs wild-type
Method: ESFT cells TC71 were transfected with pGE9R (wild-type sequence peptide (SEQ ID NO: 29)) or pGE9R-D5A (control, mutated peptide; D5A (SEQ ID NO: 31)). In FIG. 10A, fluorescent micrographs of transfected cells after 4 days in culture are presented. […] Bar equals 300 microns. In FIG. 10B, each group contains six mice. Mice legs were measured every 2-3 days. Tumors appeared in 2 weeks. The experiment was terminated after 26 days when the largest tumor caused the mouse to limp. Tumor volumes were calculated according to (D×d2/6)×π formula, where large diameter of tumor mass is D and small diameter is d. 2-way ANOVA analysis, followed by Bonferroni correction for multiple variables, the difference in the two growth curves was highly significant, p=0.016.
The ability of the E9R peptide sequence to prevent ESFT tumorigenesis in a pilot murine xenograft experiment was determined. As a control peptide, the same mutation that prevented wild-type RHA from binding to EWS-FLI1 (D827A, noted in the 10-mer peptide as E9R-D5A) was created. ESFT cells were transfected with either pGE9R or pGE9R-D5A by electroporation. A transfection efficiency of greater than 80% using fluorescent microscopy (FIG. 10A) was observed. […] Every two to three days, each animal's thigh was measured in three dimensions, and tumor volumes were calculated. […]

[3] = system: TC32 cells; test: Monolayer cell growth (MTT or WST), TC32; type: cell-based; conditions: TC32 monolayer, 10 μM
Method: (§1) In FIG. 13A, recombinant EWS-FLI1 was treated with NSC635437 for 30 minutes. GST-RHA (630-1020) was added and the complexes were then precipitated with antibody to EWS-FLI1 and Protein G beads. Resolved complexes showing the immunoprecipitated complex control without compound are in lanes 3 (0.1% DMSO) and 5 (0.01% DMSO). […] ESFT TC32 (◯) and neuroblastoma SK-N-AS (▪) were grown for 72 hours in the continuous presence of NSC635437. Cells were incubated in MTT reagent for 4 hours and the dried precipitate was dissolved isopropanol and the absorbance read at 570 nm. Each cell line was standardized to the growth of the DMSO control.
(§2) FIG. 30 provides data to show E9R peptide prevents EWS-FLI1 binding to RHA with specific detrimental effects upon ESFT growth and transformation. […] Scale bar equals 20 μm. […] Only expression of EGFP-E9R in TC71 reduced anchorage independent growth. […] Scale bar equals 20 μm.
FIG. 33 provides data showing YK-4-279 is potent and specific inhibitor of ESFT. […] Cell number was measured by MTT or WST reduction after seven days in culture. […] FIG. 33D cell lines expressing EWS-FLI1 compared to non-EWS-FLI1 malignant cell lines following 3 days in culture to establish the IC50 using WST assay. […] Graph plots level of fluorescence in treated divided by untreated lysate. […] Scale bar equals 200 μm.

[4] = system: neuroblastoma SKNAS cells; test: Monolayer cell growth, neuroblastoma; type: cell-based; conditions: SKNAS monolayer
Text: FIGS. 8A-E show E9RP inhibits ESFT cell growth. In FIGS. 8A and 8B, E9RP is the peptide region of RHA (SEQ ID NO:29) fused to the Penetratin peptide (from the Antennapedia homeodomain; SEQ ID NO:34) and contains amino-terminal fluorescein (FITC). […] Neither lipids nor electricity were used for transduction of peptides into cells. Confocal microscopy identified peptide throughout cells with nuclear uptake. Nuclear uptake was confirmed by DAPI staining. […] Cell lines were placed in 96-well plates with either vehicle alone (●), or E9RP (10 μM) on days 0, 3 and 5 (▴). No lipid or other transfection method was utilized. This represents two experiments with similar results. FIG. 8D depicts dose response of ESFT 1 to either wild-type or single amino-acid mutant peptides. (▪) wild-type E9RP, (E9R (SEQ ID NO:29) fused to the Penetratin peptide (SEQ ID NO:34)), (▾)(E9RP (P2A peptide (SEQ ID NO:30) fused to the Penetratin peptide (SEQ ID NO:34)), (▴)E9RP (D5A peptide (SEQ ID NO:31) fused to the Penetratin peptide (SEQ ID NO:34)). Growth normalized to treating cells with the 16 aa Antp sequence alone (SEQ ID NO:34). FIG. 8E is a comparison of wild-type versus mutant peptides in ESFT and NB cells.
as §1, §2

Kd ([1]; FIG. 24 experiment): 10.2 µM
melting point: 154 to 156 °C
Molecule: O=C(CC1(O)C(=O)N(Cc2ccccc2)c2c(Cl)ccc(Cl)c21)c1ccc(Cl)cc1 (centres unmarked) [YK-4-276, 1-Benzyl-4,7-dichloro-3-[2-(4-chlorophenyl-2-oxoethyl)]-3-hydroxyl-1,3-dihydroindol-2-one]

melting point: 189 to 192 °C
Molecule: Cc1ccc(C(=O)CC2(O)C(=O)Nc3c(Cl)ccc(Cl)c32)cc1 (centres unmarked) [YK-4-280, 4,7-Dichloro-3-hydroxyl-3-(2-oxo-2-p-tolylethyl)-1,3-dihydroindol-2-one]

melting point: 240 to 243 °C
Molecule: Nc1ccc(C(=O)CC2(O)C(=O)Nc3c(Cl)ccc(Cl)c32)cc1 (centres unmarked) [YK-4-284, 3-[2-(4-Aminophenyl-2-oxoethyl)]-4,7-dichloro-3-hydroxyl 1,3-dihydroindol-2-one]

melting point: 198 to 200 °C
Molecule: O=C(CC1(O)C(=O)Nc2c(Cl)ccc(Cl)c21)c1ccccc1 (centres unmarked) [YK-4-285, 4,7-Dichloro-3-hydroxyl-3-(2-oxo2-phenylethyl)-1,3-dihydroindol-2-one]

Kd ([1]; FIG. 23 experiment): 6.82 µM
Kd ([1]; FIG. 24 experiment): 9.3 µM
melting point: 240 to 242 °C
Molecule: O=C(CC1(O)C(=O)Nc2c(Cl)ccc(Cl)c21)c1ccc(O)cc1 (centres unmarked) [YK-4-289, 4,7-Dichloro-3-hydroxyl-3-[2-(4-hydroxyphenyl-2-oxoethyl)]-1,3-dihydroindol-2-one]

Molecule: PPPLAAVIEA [E9R-D5A, control, mutated peptide D5A, expressed from pGE9R-D5A, reference compound]
tumor take-rate and rate of growth [2]: greater

Molecule: [FITC]-RQIKIWFQNRRMKWKKPPPLAAVIEA ({FITC}-RQIKIWFQNRRMKWKKPPPLAAVIEA) [E9R(D5A), Antennapedia-E9R-D5A, mutated control peptide, reference compound]
ESFT cell growth with fluorescein conjugated peptides [3]: neither the D5A mutated control nor antennapedia peptides alone reduced ESFT cell growth
growth of neuroblastoma cells with fluorescein conjugated peptides [4]: slight increase
